Experiment: Solubility in an organic solvent (toluene)
Format: physicochemical
Conditions: for Solubility: grams of PXX compound dissolving in 10 grams of toluene
Method: The melting point and the mesophase transition temperature of the PXX compound can be determined by TG-DTA (thermogravimetry/differential thermal analysis) and DSC (differential scanning calorimetry). Further, solubility in an organic solvent was measured. […] In Table 1, the mesophase transition temperature is denoted as “transition temperature”. […]

Solubility | Amount dissolved in toluene (in 100 grams of toluene) | Structure (SMILES)
1.5 g | – | CC(C)Cc1ccc(-c2ccc3oc4ccc5c(-c6ccc(CC(C)C)cc6)ccc6oc7ccc2c3c7-c4c65)cc1 [Working Example 2A]
1.3 g | – | CC(C)CCc1ccc(-c2ccc3oc4ccc5c(-c6ccc(CCC(C)C)cc6)ccc6oc7ccc2c3c7-c4c65)cc1 [Working Example 2B]
0.37 g | 0.37 grams | CC(C)c1ccc(-c2ccc3oc4ccc5c(-c6ccc(C(C)C)cc6)ccc6oc7ccc2c3c7-c4c65)cc1 [Comparative Example 2D]
